Here are results for five compounds from patent US20260265305A1, “POLYPEPTIDE DERIVATIVE FOR ORAL DELIVERY” (Hangzhou Sciwind Biosciences Co., Ltd., priority 2023, published 2026).

The target in series [1] is T1, calcitonin receptor (hCTR) (Homo sapiens, UniProt P30988).
T1 construct: host or cells: CHO-K1/CALCR/Ga15 cells, further stably transfected with a CRE-luciferase plasmid
T1 sequence (P30988 25-474): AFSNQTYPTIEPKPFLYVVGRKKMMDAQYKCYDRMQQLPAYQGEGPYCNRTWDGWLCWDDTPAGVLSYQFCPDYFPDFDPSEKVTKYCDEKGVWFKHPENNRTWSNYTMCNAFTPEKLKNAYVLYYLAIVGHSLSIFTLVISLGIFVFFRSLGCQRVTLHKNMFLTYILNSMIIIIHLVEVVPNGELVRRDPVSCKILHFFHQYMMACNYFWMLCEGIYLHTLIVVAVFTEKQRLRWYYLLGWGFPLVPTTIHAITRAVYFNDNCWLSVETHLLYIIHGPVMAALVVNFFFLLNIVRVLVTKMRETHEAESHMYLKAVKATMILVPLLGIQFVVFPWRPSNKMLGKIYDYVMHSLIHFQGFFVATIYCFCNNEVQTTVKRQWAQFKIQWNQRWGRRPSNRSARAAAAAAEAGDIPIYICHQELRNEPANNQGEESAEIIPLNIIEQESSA
The series is described as follows: Calcitonin receptor agonism, CRE-luciferase assay in stably transfected CHO-K1/CALCR/Ga15 cells. Type of series: cell-based. The following applies: for EC50: incubation of 24 hours, Table 4, read-out: EC50, activity against the calcitonin receptor in cells; for Fold change in activity against hCTR: relative to D1 as benchmark.
Protocol: Using the standard protocol, CHO-K1/CALCR/Ga15 cells (purchased from GenScript, with the calcitonin receptor constructed already) were transfected with a plasmid containing a luciferase expression cassette driven by multiple copies of cAMP response elements (CREs). The cells were cultured in an F12 medium containing 200 ug/mL Zeocin, 2 ug/mL puromycin, and 100 ug/mL hygromycin to afford a stably transfected calcitonin receptor/CRE-luc cell line.
To each well of a white 96-well plate was added 50 μL of the tested sample solution at a respective concentration.
The stably transfected calcitonin receptor/CRE-luc CHO cells were resuspended in the growth medium at a certain density, and 50 μL of the cell suspension was added at a density of about 20,000 cells per well to the white 96-well plate containing the tested sample solution. After incubation of 24 hours at 37° C. and 5% CO2, 100 μL of a Luciferase substrate was added to each well, incubated for 3 minutes, and finally was tested for luminescence on SpectraMax L (Molecular Devices) with the software SoftMax Pro 7.0.3 GxP. A standard curve was plotted using the fluorescent intensities for calculation of EC50.

Series [2] concerns the target T2, amylin receptor (hAMY3R) (Homo sapiens, UniProt O60896+P30988).
T2 construct: host or cells: CHO-K1/Ga15/AMY3 cells, further stably transfected with a CRE-luciferase plasmid
T2 sequence (P30988 25-474): T1 sequence (P30988 25-474)
T2 sequence (O60896 24-148): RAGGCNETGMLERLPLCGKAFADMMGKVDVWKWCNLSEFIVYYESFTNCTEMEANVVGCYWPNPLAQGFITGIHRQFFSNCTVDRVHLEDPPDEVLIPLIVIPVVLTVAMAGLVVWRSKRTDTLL
The series is described as follows: Amylin receptor agonism testing, CRE-luciferase assay in stably transfected CHO-K1/Ga15/AMY3 cells. Type of series: cell-based. The following applies: relative to D1 as benchmark.

Series [3] in a line: Heat accelerated stability assay of polypeptide solutions (40° C., pH about 7.4), reversed phase chromatography. Conditions: 40° C.; for Concentration change on 26 d / Concentration change on 7 d: pH about 7.4, 1 mg/mL; for Concentration change on 26 d / Purity change on 26 d: Day 26; for Purity change on 7 d / Purity change on 26 d: reversed phase chromatography 214 nm; for Purity change on 7 d / Concentration change on 7 d: Day 7; for Purity change on 7 d: purity on 7 d − purity on 0 d; for Purity change on 26 d: purity on 26 d − purity on 0 d. It is filed as physicochemical. On the procedure:
A stability test chamber (BINDER GmbH), a 0.01 mg-readability balance (METTLER TOLEDO), a pH meter (METTLER TOLEDO), a biosafety cabinet (ESCO), T2G-II small-sized motor-driven capping machine (Changsha zhongya pharmaceutical equipment co. LTD), a high-speed refrigerated centrifuge (Eppendorf), a sterilizer cabinet (Shinva Medical), Agilent 1260 high-performance liquid chromatographer, and Sepax Bio-C18 4.6*250 mm 3 μm 200 Å reversed phase column were used.
Reagents and consumables included: ultrapure water (18.2 MΩ, self-made), acetonitrile (HPLC grade), trifluoroacetic acid (HPLC grade), sodium dihydrogen phosphate (pharmaceutical grade, Hunan Jiudian Hongyang Pharmaceutical Co., Ltd), hydrochloric acid (pharmaceutical grade, Hunan Er-Kang Pharmaceutical Co., Ltd), sodium hydroxide (Analytical Reagent grade, Hushi®, Sinopharm Chemical Reagent Co., Ltd), vials, rubber stoppers, disposable syringes, and sterile filters.
The lyophilized powder (1 mg/mL) of the polypeptide derivative prepared in accordance with the method of Example 1 was mixed with sodium dihydrogen phosphate (1.42 mg/mL) and dissolved in ultrapure water in the indicated mass-volume ratios. After adjusting pH to about 7.4 with hydrochloric acid/sodium hydroxide, the solution was filtered into a sterilized vial in a clean bench using a 0.22 μm sterile filter. The vial was then capped and placed into the stability test chamber at 40° C. Detections were made on Days 7 (7d) and 26 (26d), and during the assay, changes in the characteristics and properties of the polypeptide were observed and recorded. The sample was then centrifuged for 3 min at 10,000 rpm at 4° C., and the supernatant was transferred to a liquid phase sample vial for detecting the concentration and purity of the polypeptides using liquid phase chromatography described as below, wherein the concentration of the polypeptide=peak area/injection volume/extinction coefficient/60×flow rate, and the purity of the polypeptide=target peak area/total peak area×100%.
Conditions of the reversed phase chromatography Flow rate: 1.0 ml/min; Autosampler temperature: 15° C.; Column temperature: 25° C.; Detection wavelengths: 280 nm and 214 nm; Mobile phase A: 100% H2O+0.05% TFA; Mobile phase B: 100% ACN; and Gradient of elution listed in Table 6: […]

Molecules are shown by their SMILES. Numbered stars: 1 amine (or outer) side, 2 acyl side, 3 side chain; on linkers, the order of the positions; unused ones are H or OH. Peptide text beside a SMILES is read from it. * marks the point of attachment. C20 diacid = O=C(O)CCCCCCCCCCCCCCCCCCC(=O)*; C18 diacid = O=C(O)CCCCCCCCCCCCCCCCC(=O)*; γGlu = O=C(O)[C@H](CCC(=O)[*:2])N[*:1]; βAsp = O=C(O)[C@H](CC(=O)[*:2])N[*:1]; Trx = NC[C@H]1CC[C@H](C(=O)O)CC1; AEEA = NCCOCCOCC(=O)O

For `CC(C)C[C@H](NC(=O)[C@H](CCCNC(=N)N)NC(=O)CNC(=O)[C@H](CC(C)C)NC(=O)[C@@H](NC(=O)[C@H](C)NC(=O)[C@@H](NC(=O)[C@H](CO)NC(=O)[C@H](CC(C)C)NC(=O)[C@H](CCC(N)=O)NC(=O)[C@H](CO)NC(=O)[C@H](C)NC(=O)CC[C@H](NC(=O)CCCCCCCCCCCCCCCCCCC(=O)O)C(=O)O)[C@@H](C)O)C(C)C)C(=O)N[C@@H](CO)C(=O)N[C@@H](CC(=O)O)C(=O)N[C@@H](CCC(=O)O)C(=O)N[C@@H](CC(C)C)C(=O)N[C@@H](Cc1c[nH]cn1)C(=O)N[C@@H](CCCNC(=N)N)C(=O)N[C@@H](CC(C)C)C(=O)N[C@@H](CCC(N)=O)C(=O)N[C@@H](CC(=O)O)C(=O)N[C@@H](Cc1ccc(O)cc1)C(=O)N1CCC[C@H]1C(=O)N[C@@H](CCCNC(=N)N)C(=O)N[C@H](C(=O)N[C@@H](CC(=O)O)C(=O)N[C@H](C(=O)NCC(=O)N[C@@H](CO)C(=O)NCC(=O)N[C@@H](CO)C(=O)N1CCC[C@H]1C(N)=O)C(C)C)[C@@H](C)O` [M6] ({C20 diacid-γGlu}-ASQLSTAVLGRLSDELHRLQDYPRTDVGSGSP-NH2), in series [1], the EC50 (usually the concentration that produces a half-maximal response) is 28 pM and the “Fold change in activity against hCTR” value is 3.071. The “Fold change in activity against hAMY3R” value in series [2] came to 2.118. In series [3], the “Concentration change on 26 d” value is recorded as −1.865%, the “Purity change on 7 d” value is 1.64% and the “Purity change on 26 d” value was “No change”.

For the compound `CC(C)C[C@H](NC(=O)[C@H](CCCNC(=N)N)NC(=O)CNC(=O)[C@H](CC(C)C)NC(=O)[C@@H](NC(=O)[C@H](C)NC(=O)[C@@H](NC(=O)[C@H](CO)NC(=O)[C@H](CC(C)C)NC(=O)[C@H](CCC(N)=O)NC(=O)[C@H](CO)NC(=O)[C@H](C)NC(=O)[C@H](CCC(=O)O)NC(=O)CCCCCCCCCCCCCCCCC(=O)O)[C@@H](C)O)C(C)C)C(=O)N[C@@H](CO)C(=O)N[C@@H](CC(=O)O)C(=O)N[C@@H](CCC(=O)O)C(=O)N[C@@H](CC(C)C)C(=O)N[C@@H](Cc1c[nH]cn1)C(=O)N[C@@H](CCCNC(=N)N)C(=O)N[C@@H](CC(C)C)C(=O)N[C@@H](CCC(N)=O)C(=O)N[C@@H](CC(=O)O)C(=O)N[C@@H](Cc1ccc(O)cc1)C(=O)N1CCC[C@H]1C(=O)N[C@@H](CCCNC(=N)N)C(=O)N[C@H](C(=O)N[C@@H](CC(=O)O)C(=O)N[C@H](C(=O)NCC(=O)N[C@@H](CO)C(=O)NCC(=O)N[C@@H](CO)C(=O)N1CCC[C@H]1C(N)=O)C(C)C)[C@@H](C)O` [M11] ({C18 diacid}-EASQLSTAVLGRLSDELHRLQDYPRTDVGSGSP-NH2), in series [1], the EC50 is 71 pM and the “Fold change in activity against hCTR” value is listed as 1.211. Besides, the “Fold change in activity against hAMY3R” value in series [2] is recorded as 2.250. Moreover, in series [3], the “Concentration change on 7 d” value is given as −3.472%, the “Concentration change on 26 d” value was −9.840%, the “Purity change on 7 d” value is given as 1.01% and the “Purity change on 26 d” value is reported as −2.93%.

Consider `CC(C)C[C@H](NC(=O)[C@H](CCCNC(=N)N)NC(=O)CNC(=O)[C@H](CC(C)C)NC(=O)[C@@H](NC(=O)[C@H](C)NC(=O)[C@@H](NC(=O)[C@H](CO)NC(=O)[C@H](CC(C)C)NC(=O)[C@H](CCC(N)=O)NC(=O)[C@H](CO)NC(=O)[C@H](C)NC(=O)C[C@H](NC(=O)CCCCCCCCCCCCCCCCCCC(=O)O)C(=O)O)[C@@H](C)O)C(C)C)C(=O)N[C@@H](CO)C(=O)N[C@@H](CC(=O)O)C(=O)N[C@@H](CCC(=O)O)C(=O)N[C@@H](CC(C)C)C(=O)N[C@@H](Cc1c[nH]cn1)C(=O)N[C@@H](CCCNC(=N)N)C(=O)N[C@@H](CC(C)C)C(=O)N[C@@H](CCC(N)=O)C(=O)N[C@@H](CC(=O)O)C(=O)N[C@@H](Cc1ccc(O)cc1)C(=O)N1CCC[C@H]1C(=O)N[C@@H](CCCNC(=N)N)C(=O)N[C@H](C(=O)N[C@@H](CC(=O)O)C(=O)N[C@H](C(=O)NCC(=O)N[C@@H](CO)C(=O)NCC(=O)N[C@@H](CO)C(=O)N1CCC[C@H]1C(N)=O)C(C)C)[C@@H](C)O` [M12] ({C20 diacid-βAsp}-ASQLSTAVLGRLSDELHRLQDYPRTDVGSGSP-NH2), for which, in series [1], the concentration giving a half-maximal response (EC50) is 73 pM and the “Fold change in activity against hCTR” value was 1.178. In addition, the “Fold change in activity against hAMY3R” value in series [2] worked out at 2.118. For the same compound, in series [3], the “Concentration change on 7 d” value was “No change (concentration change of less than 1% (denoted as “no change”))”, the “Concentration change on 26 d” value is reported as −8.378%, the “Purity change on 7 d” value was 1.12% and the “Purity change on 26 d” value was −1.96%.

For the compound `CC(C)C[C@H](NC(=O)[C@H](CCCNC(=N)N)NC(=O)CNC(=O)[C@H](CC(C)C)NC(=O)[C@@H](NC(=O)[C@H](C)NC(=O)[C@@H](NC(=O)[C@H](CO)NC(=O)[C@H](CC(C)C)NC(=O)[C@H](CCC(N)=O)NC(=O)[C@H](CO)NC(=O)[C@H](C)NC(=O)[C@H]1CC[C@H](CNC(=O)CCCCCCCCCCCCCCCCCCC(=O)O)CC1)[C@@H](C)O)C(C)C)C(=O)N[C@@H](CO)C(=O)N[C@@H](CC(=O)O)C(=O)N[C@@H](CCC(=O)O)C(=O)N[C@@H](CC(C)C)C(=O)N[C@@H](Cc1c[nH]cn1)C(=O)N[C@@H](CCCNC(=N)N)C(=O)N[C@@H](CC(C)C)C(=O)N[C@@H](CCC(N)=O)C(=O)N[C@@H](CC(=O)O)C(=O)N[C@@H](Cc1ccc(O)cc1)C(=O)N1CCC[C@H]1C(=O)N[C@@H](CCCNC(=N)N)C(=O)N[C@H](C(=O)N[C@@H](CC(=O)O)C(=O)N[C@H](C(=O)NCC(=O)N[C@@H](CO)C(=O)NCC(=O)N[C@@H](CO)C(=O)N1CCC[C@H]1C(N)=O)C(C)C)[C@@H](C)O` [M14] ({C20 diacid-Trx}-ASQLSTAVLGRLSDELHRLQDYPRTDVGSGSP-NH2), the “Fold change in activity against hCTR” value in series [1] is listed as 0.147. Moreover, the “Fold change in activity against hAMY3R” value in series [2] amounted to 0.079. In series [3], the “Concentration change on 7 d” value is listed as −3.464%, the “Concentration change on 26 d” value is −8.377%, the “Purity change on 7 d” value was “No change” and the “Purity change on 26 d” value is given as −1.77%.

On to `CC(C)C[C@H](NC(=O)[C@H](CCCNC(=N)N)NC(=O)CNC(=O)[C@H](CC(C)C)NC(=O)[C@@H](NC(=O)[C@H](C)NC(=O)[C@@H](NC(=O)[C@H](CO)NC(=O)[C@H](CC(C)C)NC(=O)[C@H](CCC(N)=O)NC(=O)[C@H](CO)NC(=O)[C@H](C)NC(=O)COCCOCCNC(=O)COCCOCCNC(=O)[C@H]1CC[C@H](CNC(=O)CCCCCCCCCCCCCCCCC(=O)O)CC1)[C@@H](C)O)C(C)C)C(=O)N[C@@H](CO)C(=O)N[C@@H](CC(=O)O)C(=O)N[C@@H](CCC(=O)O)C(=O)N[C@@H](CC(C)C)C(=O)N[C@@H](Cc1c[nH]cn1)C(=O)N[C@@H](CCCNC(=N)N)C(=O)N[C@@H](CC(C)C)C(=O)N[C@@H](CCC(N)=O)C(=O)N[C@@H](CC(=O)O)C(=O)N[C@@H](Cc1ccc(O)cc1)C(=O)N1CCC[C@H]1C(=O)N[C@@H](CCCNC(=N)N)C(=O)N[C@H](C(=O)N[C@@H](CC(=O)O)C(=O)N[C@H](C(=O)NCC(=O)N[C@@H](CO)C(=O)NCC(=O)N[C@@H](CO)C(=O)N1CCC[C@H]1C(N)=O)C(C)C)[C@@H](C)O` [M28] ({C18 diacid-Trx-AEEA-AEEA}-ASQLSTAVLGRLSDELHRLQDYPRTDVGSGSP-NH2), for which the “Fold change in activity against hCTR” value in series [1] is listed as 0.966. Moreover, the “Fold change in activity against hAMY3R” value in series [2] came out at 18.000.
